Literature values, collected in patent publication US7691896B2, “Analogs of salinosporamide A” (President and Fellows of Harvard College, priority 2005, dated 2010).
Peptide text beside a SMILES is read from it. * marks the point of attachment. Cbz = O=C(OCc1ccccc1)*

System: PC12 cells
Details: Tsubuki et al. 1993

CC(C)C[C@@H](C=O)NC(=O)[C@H](CC(C)C)NC(=O)[C@H](CC(C)C)NC(=O)OCc1ccccc1 [benzyloxycarbonyl (Z)-Leu-Leu-leucinal] (Cbz-Leu-Leu-Leu-aldehyde)
optimal concentration inducing neurite outgrowth: 30 nM
